Data as given in patent US11911377B2, “Method for treating hypertension by using compound” (Fu Jen Catholic University, priority 2021, dated 2024).

Assays:
[1] = system: spontaneously hypertensive rats (SHRs); experiment: Histological examination (HE) of heart, liver, lung and kidney of SHRs; format: in vivo, rat; details: doses used in the experiments
Procedure: (§1) The procedure of physiological signals recording and blood tests used in this example or the following examples is as follows. The rats were anesthetized with Zoletil 50 (30 mg/kg, intraperitoneal injection) and then attached to a physiological signal recording device. The Y16 and Rhosin were administered to them by intravenous injection. Their electrocardiography (ECG), heart rate (HR), and blood pressure (BP) measurements were taken for 90 minutes. After observing and recording the physiological signals, blood was drawn from the rats in an appropriate test tube and stored for subsequent tests for complete blood cell count, liver function and renal function. The rats were then sacrificed. Their heart, lungs, liver, and kidneys were removed and stored in paraformaldehyde for further histological examinations.
The procedure of histological examination used in this example is as follows. The tissues were fixed in 4% paraformaldehyde overnight and then embedded in paraffin for histological examination. The transverse sections (4 μm) were incubated at 75˜85° C. for 10 minutes, followed by stained with hematoxylin/eosin (HE), and examined under a light microscope. Severity of lesions was graded according to the methods described by Shackelford et al. (2002). […]

[2] = system: LARG-RhoA interaction; experiment: LARG-RhoA interaction by co-immunoprecipitation and Western blot in Ang II-stimulated SHR VSMCs; format: cell-based, rat
Excerpt: (§2) The culture procedure of the primary cultured vascular smooth muscle cells (VSMCs) used in this example or the following examples is as follows. SHRs were anesthetized with Zoletil 50, and the thoracic aortas were immediately excised. The samples were then carefully cleaned of connective tissue and adherent fat. Each isolated aorta was cut open longitudinally, followed by endothelial removal by gently grazing the intimal surface. The denuded aortas were cut into approximately 2 mm^2 sections and then placed with the intimal side down. The M199 medium supplemented with 20% fetal bovine serum and antibiotics (100 U/ml penicillin and 100 μg/ml streptomycin) were then gently added to cover the tissues without disturbing the orientation of the explants. VSMCs were allowed to grow out from the explants for 7-10 days culture, and the tissues were removed.
The treatment method of the small molecule compounds used in this example or the following examples is as follows. Small molecule compounds were dissolved in pure water to test their effects on the VSMCs. […]
The procedure of cell harvest and protein extraction used in this example or the following examples is as follows. […] The protein concentrations were determined using a BSA Protein Assay kit. […]

[3] = system: spontaneously hypertensive rats (SHRs); experiment: Physiological signals recording (BP, HR) in anesthetized SHRs after intravenous injection; format: in vivo, rat; details: for decrease of BP: versus 0 min
Excerpt: According to the present invention, the statistical analysis used in the following examples is described as follows. For the physiological signals recording, the data from different time intervals of each rat was compared with that from before Y16 and Rhosin administration. Considering the differences of physiological conditions among individuals, the BP and HR are not calculated by the absolute value measured, but by the percentage of the BP or HR measured at each time point relative to those measured before administration (0 minutes). All data were representative of at least four independent experiments.
(§3) The animal model used in this example or the following examples is illustrated as follows. The Institutional Animal Care and Use Committee of the Fu Jen Catholic University, New Taipei, Taiwan (Approval No A10660), approved all of the animal procedures and experimental protocols. Male 16-week-old SHRs (body weight range: 350-370 g) were purchased from the National Laboratory Animal Center, Taipei, Taiwan. The animals were housed at a temperature of 21° C. under a 12 h light/dark cycle and fed a regular pellet diet. The animals were divided into three main groups—the Y16 group, the Rhosin group, and the Y16+Rhosin group. Each group was further divided into several subgroups according to the administered Y16 and Rhosin dose. Their concentrations are listed below: Y16 group: 0.2 mg/kg, 1 mg/kg, 5 mg/kg, 10 mg/kg, 20 mg/kg; Rhosin group: 5 mg/kg, 10 mg/kg, 20 mg/kg; Y16+Rhosin group: (Y16, 3 mg+Rhosin, 7 mg)/kg, (Y16, 5 mg+Rhosin, 10 mg)/kg.
as §1

[4] = system: SHR primary VSMCs; experiment: MTT assay for cell viability of SHR primary VSMCs; format: cell-based, rat; details: 1, 2.5, 5, 10, 30, or 50 μmol/L Y16, 24 hours
Procedure: The procedure of 3-(4,5-dimethylthiazol-2-yl)-2,5-diphenyltetrazolium bromide (MTT) assay for cell viability used in this example is as follows. The cytotoxicity results for Y16 or Rhosin were determined using an MTT-based in vitro assay. Briefly, the media from the cell cultures was discarded and carefully aspirated. Next, 50 μL of serum-free media and 50 μL of MTT solution were added into each well. The plate was then incubated at 37° C. for 3 hours. After incubation, 150 μL of MTT solvent (4 mM HCl, 0.1% NP40 in isopropanol) was added into each well. The plate was then wrapped in foil and shaken on an orbital shaker for 15 minutes, and the absorbance was read at OD=590 nm.

[5] = system: spontaneously hypertensive rats (SHRs); experiment: Blood tests (complete blood cell count, liver function) in SHRs after dosing; format: in vivo, rat; details: for platelets count (PLC) or white blood cell counts (WBC): significant versus control
Procedure: as §3, §1
The animal model and experimental procedure of this example are the same as those described in Example 6. To observe whether the use of Y16 or Rhosin might have adverse effects or even harm to the animals, the blood of rats was drawn for the blood test after collecting the required physiological signals.

[6] = system: myosin phosphatase target subunit 1 (MYPT1) phosphorylation; experiment: MYPT1 phosphorylation by Western blot in Ang II-stimulated SHR VSMCs; format: cell-based, rat
Excerpt: as §2
The treatment method of the small molecule compounds used in this example or the following examples is as follows. Small molecule compounds were dissolved in pure water to test their effects on the VSMCs. Different concentrations of Y16 or the combination of Y16+Rhosin were administered for 24 hours, followed by stimulation with 10^−7M angiotensin II (Ang II) for 10 min. The Y16 concentrations used were as follows: 1 μM, 2.5 μM, 5 μM, 10 μM, 30 μM, 50 μM.
The procedure of cell harvest and protein extraction used in this example or the following examples is as follows. Culture dishes were placed on ice and washed twice with ice-cold phosphate-buffered saline (PBS). All subsequent procedures were performed over ice. […] The protein concentrations were determined using a BSA Protein Assay kit.
The procedure of Western blot analysis used in this example or the following examples is as follows. […] Signals were visualized using a UVP Imaging System (UVP) or with X-ray film, and the results were expressed as the densitometric ratio of target protein/GAPDH or phosphor-MYPT1/total-MYPT1. […]

platelets count (PLC) or white blood cell counts (WBC) ([5]; 0.2 mg/kg iv): slightly high
platelets count (PLC) or white blood cell counts (WBC) ([5]; 1 mg/kg iv): slightly high
abnormalities regarding complete blood cell count and liver function ([5]; doses used in the experiments, iv): did not cause any overt abnormalities
SMILES: Cc1cccc(COc2cccc(/C=C3\C(=O)NN(c4ccccc4)C3=O)c2)c1 [Y16, (E)-4-(3-(3-methylbenzyloxy)benzylidene)-1-phenylpyrazolidine-3,5-dione]
injuries by histological analyses of heart, liver, lungs, and kidneys [1]: did not cause any overt injuries
LARG-RhoA interaction, relative amount of RhoA normalized to GAPDH ([2]; 50 μM Y16, 24 h, then 10^−7M Ang II 10 min, control 0.939±0.121, p<0.001): 0.469±0.074
inhibition of LARG-RhoA complex formation induced by Ang II ([2]; Y16 1-50 μM, 24 h): dose-dependently inhibited
effect on BP ([3]; 0.2 mg/kg iv): no effects on BP
effect on BP ([3]; 1 mg/kg iv): no effects on BP
duration of BP decrease ([3]; 5 mg/kg iv): 30 min
decrease of BP ([3]; 5 mg/kg iv): 21%
BP as percentage of BP before administration (0 min) ([3]; 5 mg/kg iv, p=0.0081): 79%±13%
duration of BP decrease ([3]; 10 mg/kg iv): over 60 minutes
decrease of BP ([3]; 10 mg/kg iv): 21%
BP as percentage of BP before administration (0 min) ([3]; 10 mg/kg iv, p=0.0007): 79%±12%
duration of BP decrease ([3]; 20 mg/kg iv): over 60 minutes
BP as percentage of BP before administration (0 min) ([3]; 20 mg/kg iv, 20 minutes, p=0.0187): 58%±8%
reduction of HR ([3]; 20 mg/kg iv, for 30 minutes, not statistically significant): 16%
maximum blood pressure reduction effect ([3]; 20 mg/kg iv, in 20 minutes): 42%
HR as percentage of HR before administration (0 min) ([3]; 20 mg/kg iv, p=0.1067): 84%±8%
effect on the growth (cell viability) of SHR VSMCs [4]: no conspicuous effect on the growth
phospho-MYPT1 normalized to total-MYPT1 ([6]; 5 μM Y16, 24 h, then 10^−7M Ang II 10 min, control 0.994±0.048, P=0.041): 0.642±0.199
inhibition of MYPT1 phosphorylation ([6]; Y16 1-50 μM, 24 h): dose-dependent inhibition
working concentrations required for the effective inhibition of MYPT1 phosphorylation ([6]; lowest concentration with statistically significant difference): 5 µM
